The results in this text go back to patent publication US20110009268A1, “IPBC-CONTAINING COACERVATES” (priority 2006, published 2011).

The subject of this assay is mold fungi. Description: Coatings test: mold resistance of emulsion paint (formula A). Here is the method: The substance under test was incorporated into the test paint, at the stated concentration, using a dissolver.
The procedure for testing the emulsion paints for mold resistance was as follows:
The coating material under test was applied to both sides of a suitable substrate. In order to obtain realistic results, one portion of the test specimens was leached with running water (24 h, 20° C.) prior to the test for mold resistance; a further portion was treated with a warm stream of fresh air (7 days, 40° C.).
The samples thus prepared were then placed on an agar nutrient medium, and both samples and nutrient medium were contaminated with fungal spores. Inspection took place after 2-3 weeks' storage (29±1° C., 80-90% relative humidity).
Contamination was carried out using spores of the following mold fungi which are known to destroy coating materials or which are frequently encountered on coatings:
Alternaria tennis Aspergillus flavus Aspergillus niger Aspergillus ustus Cindosporum herbarum Paecilomyces variotii Penicillum citrium Aureobasidium pullulans Stachybotrys chartarum

In the case of `CCCCNC(=O)OCC#CI` [pure IPBC, 3-iodo-2-propynyl butylcarbamate], the “mold resistance of coating” value (0.08% based on solids content of the emulsion paint, without leaching and wind tunnel exposure) was “mold-resistant”. Also, the “activity of coating against mold” value (0.16% based on solids content of the emulsion paint, after leaching and wind tunnel exposure) is reported as “active”.
